The text below walks through data of US7691382B2, “Antiviral polypeptides comprising tandem repeats of APOE 141-149 and variants thereof” (priority 2003, dated 2010).

In one assay the test system is HSV2. Kind of assay: HSV2 plaque formation in HEp-2 cells (Example 1). The assay is classed as cell-based, Human herpes simplex virus type 2. The settings on record: for HSV2 plaque formation in HEp-2 cells, plaque count, wells 1-4: 1 hour; for HSV2 plaque formation in HEp-2 cells, Mean ± sd: untreated 152 ± 10.7. The protocol:
FIG. 2 and table 2 show typical results for the test for anti-HSV2 activity. The assay was carried out as for the anti-HSV1 assay, except Hep-2 cells were used rather than Vero cells. ApoE141-149dp produced a 50% reduction in plaque number at a concentration of around 20 μM. Again note that the peptide was only present in the experimental system for 1 hour.

Assay [1] relates to HSV1. Kind of assay: HSV1 plaque formation in Vero cells (Example 1). The assay is classed as cell-based, Human herpes simplex virus type 1. The settings on record: for HSV1 plaque formation in Vero cells, plaque count, wells 1-4: 1 hour; for HSV1 plaque formation in Vero cells, Mean ± sd: untreated 107 ± 14.2. The protocol:
FIG. 1 and table 1 show typical results for the test for anti-HSV1 activity. The assay involved treating confluent Vero cells in 24-well plates with medium containing virus and varying amounts of peptide for one hour, followed by removal of this inoculum, and addition of viscous ‘overlay’ medium, containing 0.2% high viscosity carboxymethylcellulose. The overlay medium only allows infection of those cells immediately adjacent to an infected cell. After 2 days incubation and then fixation and staining, small patches of infected cells (or ‘plaques’) are visible, which are counted. Each of these corresponds to the infection of a single cell during the one hour inoculation. ApoE141-149dp produced a 40% reduction in plaque number at a concentration of around 20 μM. Note the peptide was only present in the experimental system for 1 hour.

In the next assay the test system is HIV-1. The settings on record: for activity against HIV, significance by ANOVA (in words): FIG. 3, acutely infected U937 cells; for reduction in infectivity (HIV): at 20 μM; for reduction in infectivity (HIV) / % Decrease in HIV p24 Production, Mean ± sd / % Decrease in HIV p24 Production, Exp. 1-3: U937 cells, 7 days.
The subject of assay [2] is HSV1. The assay is classed as cell-based, Human herpes simplex virus type 1. The settings on record: for efficacy for reducing HSV1 infectivity (in words): Examples 2 and 3. The essentials:
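Plaque reduction in Vero monolayers: ~100 pfu HSV1 pre-mixed 10 min at 37 °C with acetylated/amidated peptides in 0.5% FCS medium, inoculated 60–80 min, then carboxymethylcellulose overlay for 22 or 40 h. Plaques counted after fixing and carbol fuchsin staining; IC50 from % of control versus peptide concentration.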

A further assay relates to HSV2 clinical isolates. The class given is cell-based, Human herpes simplex virus type 2. The protocol:
Plaque assays were performed. The methodology was as described in previous Examples for HSV1 plaque assays (including usage of Vero cells) except HSV2 clinical isolates (provided by Prof. Anthony Hart of Liverpool University) were employed instead.

The mark [3] stands for this setting: at a concentration of around 20 μM, peptide present 1 hour.
[4] abbreviates: peptide 5 μM in virus inoculum, listed as ApoE141-149dp.
The mark [5] stands for this setting: peptide 10 μM in virus inoculum, listed as ApoE141-149dp.
[6] abbreviates: peptide 20 μM in virus inoculum, listed as ApoE141-149dp.
Where [7] appears, read: peptide 30 μM in virus inoculum, listed as ApoE141-149dp.
The mark [8] stands for this setting: peptide 40 μM in virus inoculum, listed as ApoE141-149dp.
The mark [9] stands for this setting: peptide 10 μM in virus inoculum.
The mark [10] stands for this setting: peptide 20 μM in virus inoculum.
Setting [11] is: peptide 30 μM in virus inoculum.
Where [12] appears, read: peptide 40 μM in virus inoculum.

Where “and” joins values, the source holds several entries; their conditions need not be identical. Identical values can stand only once. Like-named read-outs stand apart in the source and are kept apart here. Peptide text beside a SMILES is read from it.

Experimental for HIV-1: The assay was carried out by incubating HIV infected U937 cells in the presence of various levels of peptide for 7 days, followed by assay for levels of the HIV protein p24 in the cells using an Enzyme Linked Immunoabsorbant Assay (ELISA) technique.

Consider `CC(C)C[C@H](NC(=O)[C@H](CC(C)C)NC(=O)[C@H](CCCNC(=N)N)NC(=O)[C@H](CCCCN)NC(=O)[C@H](CCCNC(=N)N)NC(=O)[C@H](CC(C)C)NC(=O)[C@H](CCCCN)NC(=O)[C@H](CCCNC(=N)N)NC(=O)[C@H](CC(C)C)NC(=O)[C@H](CC(C)C)NC(=O)[C@H](CC(C)C)NC(=O)[C@H](CCCNC(=N)N)NC(=O)[C@H](CCCCN)NC(=O)[C@H](CCCNC(=N)N)NC(=O)[C@H](CC(C)C)NC(=O)[C@H](CCCCN)NC(=O)[C@H](CCCNC(=N)N)NC(=O)[C@@H](N)CC(C)C)C(=O)O` [GIN 1] (H-LRKLRKRLLLRKLRKRLL-OH), for which, in the assay with HSV2 (setting [3]), the “reduction in plaque number (HSV2)” value stood at 50%. Moreover, the “HSV2 plaque formation in HEp-2 cells, plaque count, wells 1-4” value was 160 and 134 and 140 and 130 in the assay on HSV2 (setting [4]); 125 and 113 and 131 and 132 in the assay on HSV2 (setting [5]); 82 and 72 and 73 and 81 in the assay on HSV2 (setting [6]); 76 and 77 and 71 and 72 in the assay with HSV2 (setting [7]); 51 and 59 and 69 and 49 with HSV2 (setting [8]). In addition, the “HSV2 plaque formation in HEp-2 cells, Mean ± sd” value in the assay on HSV2 (peptide 5 μM) was found to be 141 ± 13.3; with HSV2 (peptide 10 μM), 125 ± 8.7; with HSV2 (peptide 20 μM), 77 ± 5.2; with HSV2 (peptide 30 μM), 74 ± 2.9; with HSV2 (peptide 40 μM), 57 ± 9.1. Besides, the “reduction in plaque number (HSV1)” value in the assay on HSV1 [1] (setting [3]) came out at 40%. Also, the “HSV1 plaque formation in Vero cells, plaque count, wells 1-4” value in the assay with HSV1 [1] (setting [4]) is 129 and 106 and 103 and 100; in the assay on HSV1 [1] (setting [5]), 73 and 87 and 76 and 89; in the assay with HSV1 [1] (setting [6]) it was 68 and 67 and 63; in the assay on HSV1 [1] (setting [7]) it was 72 and 71 and 56; in the assay on HSV1 [1] (setting [8]), 64 and 65 and 53 and 68. For the same compound, the “HSV1 plaque formation in Vero cells, Mean ± sd” value was 110 ± 13.2 in the assay with HSV1 [1] (peptide 5 μM); 81 ± 7.9 in the assay with HSV1 [1] (peptide 10 μM); 65 ± 2.6 in the assay with HSV1 [1] (peptide 20 μM); 66 ± 9.0 with HSV1 [1] (peptide 30 μM); 63 ± 6.6 in the assay on HSV1 [1] (peptide 40 μM). Further, in the assay on HIV-1, the “activity against HIV, significance by ANOVA (in words)” value is reported as “significantly active”. Also, the “reduction in infectivity (HIV)” value in the assay with HIV-1 is 95%. Also, the “% Decrease in HIV p24 Production, Mean ± sd” value with HIV-1 (peptide 10 μM) is 83.94 ± 11.84%; in the assay on HIV-1 (peptide 20 μM), 95.02 ± 1.89%; in the assay on HIV-1 (peptide 30 μM), 90.78 ± 4.49%; in the assay with HIV-1 (peptide 40 μM), 95.87 ± 0.81%; with HIV-1 (peptide 50 μM), 94.79 ± 1.34%. Besides, the “% Decrease in HIV p24 Production, Exp. 1-3” value in the assay on HIV-1 (peptide 10 μM, listed as ApoE141-149dp) was 91.66% and 70.31% and 89.85%; in the assay on HIV-1 (peptide 20 μM, listed as ApoE141-149dp), 96.87% and 95.08% and 93.10%; in the assay with HIV-1 (peptide 30 μM, listed as ApoE141-149dp), 95.94% and 88.63% and 87.77%; in the assay on HIV-1 (peptide 40 μM, listed as ApoE141-149dp) it was 96.80% and 95.47% and 95.33%; in the assay with HIV-1 (peptide 50 μM, listed as ApoE141-149dp) it was 95.73% and 93.25% and 95.38%. Inhibition in the assay on HSV1 [2] was half-maximal at 16.5 µM (IC50). In the assay with HSV1 [2], the “efficacy for reducing HSV1 infectivity (in words)” value is “good efficacy”.

Take `CC(=O)N[C@@H](Cc1c[nH]c2ccccc12)C(=O)N[C@@H](CCCNC(=N)N)C(=O)N[C@@H](CCCCN)C(=O)N[C@@H](Cc1c[nH]c2ccccc12)C(=O)N[C@@H](CCCNC(=N)N)C(=O)N[C@@H](CCCCN)C(=O)N[C@@H](CCCNC(=N)N)C(=O)N[C@@H](Cc1c[nH]c2ccccc12)C(=O)N[C@@H](Cc1c[nH]c2ccccc12)C(=O)N[C@@H](Cc1c[nH]c2ccccc12)C(=O)N[C@@H](CCCNC(=N)N)C(=O)N[C@@H](CCCCN)C(=O)N[C@@H](Cc1c[nH]c2ccccc12)C(=O)N[C@@H](CCCNC(=N)N)C(=O)N[C@@H](CCCCN)C(=O)N[C@@H](CCCNC(=N)N)C(=O)N[C@@H](Cc1c[nH]c2ccccc12)C(=O)N[C@@H](Cc1c[nH]c2ccccc12)C(N)=O` [GIN 7] (Ac-WRKWRKRWWWRKWRKRWW-NH2): the IC50 in the assay with HSV2 clinical isolates was less than 3.3 µM.

With `CC(=O)N[C@@H](Cc1c[nH]c2ccccc12)C(=O)N[C@@H](CCCNC(=N)N)C(=O)N[C@@H](CCCCN)C(=O)N[C@@H](Cc1c[nH]c2ccccc12)C(=O)N[C@@H](CCCNC(=N)N)C(=O)N[C@@H](CCCCN)C(=O)N[C@@H](CCCNC(=N)N)C(=O)N[C@@H](Cc1c[nH]c2ccccc12)C(=O)N[C@@H](Cc1c[nH]c2ccccc12)C(=O)N[C@@H](CC(C)C)C(=O)N[C@@H](CCCNC(=N)N)C(=O)N[C@@H](CCCCN)C(=O)N[C@@H](CC(C)C)C(=O)N[C@@H](CCCNC(=N)N)C(=O)N[C@@H](CCCCN)C(=O)N[C@@H](CCCNC(=N)N)C(=O)N[C@@H](CC(C)C)C(=O)N[C@@H](CC(C)C)C(N)=O` [GIN 34] (Ac-WRKWRKRWWLRKLRKRLL-NH2), the IC50 was 6 µM in the assay with HSV1 [2] and less than 3.3 µM with HSV2 clinical isolates. Also, the “efficacy for reducing HSV1 infectivity (in words)” value in the assay with HSV1 [2] is recorded as “also had efficacy”.

As to “ApoE263-286: apoE263-286 peptide tested alongside apoE141-149dp in Example 1 (SWFEPLVEDMQRQWAGLVEKVQAA; UniProt P02649 281-304, looked up, fragment) [reference compound]”, the “HSV2 plaque formation in HEp-2 cells, plaque count, wells 1-4” value in the assay on HSV2 (peptide 5 μM in virus inoculum) was 135 and 160 and 161 and 152; in the assay on HSV2 (setting [9]), 157 and 121 and 151 and 134; in the assay on HSV2 (setting [10]), 118 and 150 and 182 and 134; with HSV2 (setting [11]), 118 and 117 and 103 and 159; in the assay on HSV2 (setting [12]), 132 and 144 and 125 and 124. Moreover, the “HSV2 plaque formation in HEp-2 cells, Mean ± sd” value with HSV2 (peptide 5 μM) came to 152 ± 12.0; in the assay with HSV2 (peptide 10 μM) it was 141 ± 16.1; in the assay on HSV2 (peptide 20 μM), 146 ± 27.3; in the assay with HSV2 (peptide 30 μM), 124 ± 24.2; in the assay with HSV2 (peptide 40 μM), 131 ± 24.2. Also, the “HSV1 plaque formation in Vero cells, plaque count, wells 1-4” value with HSV1 [1] (peptide 5 μM in virus inoculum) is 113 and 119 and 122 and 126; in the assay with HSV1 [1] (setting [9]), 116 and 124 and 102; in the assay with HSV1 [1] (setting [10]), 148 and 112 and 133 and 114; in the assay with HSV1 [1] (setting [11]), 134 and 109 and 114 and 125; in the assay with HSV1 [1] (setting [12]) it was 120 and 113 and 125 and 144. The “HSV1 plaque formation in Vero cells, Mean ± sd” value in the assay on HSV1 [1] (peptide 5 μM) is given as 120 ± 5.5; in the assay with HSV1 [1] (peptide 10 μM), 114 ± 11.1; with HSV1 [1] (peptide 20 μM), 127 ± 17.0; with HSV1 [1] (peptide 30 μM) it was 121 ± 11.2; with HSV1 [1] (peptide 40 μM) it was 126 ± 11.2. Also, the “activity against HIV, significance by ANOVA (in words)” value in the assay with HIV-1 is reported as “did not reach significance”. For the same compound, the “reduction in infectivity (HIV)” value with HIV-1 was determined as 20%. Further, the “% Decrease in HIV p24 Production, Mean ± sd” value came to 23.21 ± 12.79% with HIV-1 (peptide 10 μM); 22.77 ± 13.07% in the assay on HIV-1 (peptide 20 μM); 35.85 ± 7.21% in the assay with HIV-1 (peptide 30 μM); 38.87 ± 12.70% in the assay with HIV-1 (peptide 40 μM); 40.16 ± 6.25% with HIV-1 (peptide 50 μM). Besides, the “% Decrease in HIV p24 Production, Exp. 1-3” value in the assay with HIV-1 (peptide 30 μM) was 37.94% and 27.83% and 41.78%; with HIV-1 (peptide 50 μM), 33.36% and 41.45% and 45.66%.

A word on the IC50: it is the concentration that inhibits the measured activity by half. The low end stands for greater potency, the high end for weaker potency.
